Source: ChEMBL document CHEMBL5316300, “Discovery of TP0597850: A Selective, Chemically Stable, and Slow Tight-Binding Matrix Metalloproteinase-2 Inhibitor with a Phenylbenzamide-Pentapeptide Hybrid Scaffold” (J Med Chem, 2023)

Key:
[1] = target: T1, 72 kDa type IV collagenase (Homo sapiens, UniProt P08253); assay: Inhibition of human recombinant MMP2 using MOCAc-Lys-Pro-Leu-Gly-Leu-A2pr(Dnp)-Ala-Arg-N2 as substrate preincubated for 15 mins followed by substrate addition and measured after 120 mins by fluorescence based assay
Target sequence in this assay (P08253 whole entry): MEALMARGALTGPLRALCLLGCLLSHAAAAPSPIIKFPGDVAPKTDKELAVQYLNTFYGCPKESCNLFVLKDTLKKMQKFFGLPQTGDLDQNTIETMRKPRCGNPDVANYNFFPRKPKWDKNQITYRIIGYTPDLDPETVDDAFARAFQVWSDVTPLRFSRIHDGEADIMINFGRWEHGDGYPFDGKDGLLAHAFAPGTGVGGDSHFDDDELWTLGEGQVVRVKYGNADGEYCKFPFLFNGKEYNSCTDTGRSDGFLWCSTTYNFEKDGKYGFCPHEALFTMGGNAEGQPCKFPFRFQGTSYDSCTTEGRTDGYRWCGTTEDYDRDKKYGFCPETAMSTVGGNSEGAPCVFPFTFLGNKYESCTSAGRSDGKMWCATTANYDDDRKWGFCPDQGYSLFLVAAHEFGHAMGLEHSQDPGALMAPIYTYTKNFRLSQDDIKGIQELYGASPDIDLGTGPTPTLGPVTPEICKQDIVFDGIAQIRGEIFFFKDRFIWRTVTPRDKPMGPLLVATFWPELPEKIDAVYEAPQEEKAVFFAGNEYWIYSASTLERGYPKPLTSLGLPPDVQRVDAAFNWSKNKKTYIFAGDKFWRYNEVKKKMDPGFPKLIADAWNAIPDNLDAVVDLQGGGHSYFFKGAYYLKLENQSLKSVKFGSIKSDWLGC

Matrilysin = target: T2, Matrilysin (Homo sapiens, UniProt P09237); assay: Inhibition of human recombinant MMP7 using MOCAc-Lys-Pro-Leu-Gly-Leu-A2pr(Dnp)-Ala-Arg-N2 as substrate preincubated for 15 mins followed by substrate addition and measured after 120 mins by fluorescence based assay
T2 sequence (P09237 whole entry): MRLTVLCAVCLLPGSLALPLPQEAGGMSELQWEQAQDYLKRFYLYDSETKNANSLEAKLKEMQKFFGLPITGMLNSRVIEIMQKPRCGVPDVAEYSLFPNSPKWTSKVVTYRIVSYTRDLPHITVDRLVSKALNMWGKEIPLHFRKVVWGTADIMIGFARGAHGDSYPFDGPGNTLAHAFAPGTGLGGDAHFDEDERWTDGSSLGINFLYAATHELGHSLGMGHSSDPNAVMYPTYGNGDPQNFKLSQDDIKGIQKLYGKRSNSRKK

Stromelysin-1 = Stromelysin-1 (Homo sapiens, UniProt P08254); assay: Inhibition of human recombinant MMP3 using MOCAc-Lys-Pro-Leu-Gly-Leu-A2pr(Dnp)-Ala-Arg-N2 as substrate preincubated for 15 mins followed by substrate addition and measured after 120 mins by fluorescence based assay
Stromelysin-1, sequence (P08254 whole entry): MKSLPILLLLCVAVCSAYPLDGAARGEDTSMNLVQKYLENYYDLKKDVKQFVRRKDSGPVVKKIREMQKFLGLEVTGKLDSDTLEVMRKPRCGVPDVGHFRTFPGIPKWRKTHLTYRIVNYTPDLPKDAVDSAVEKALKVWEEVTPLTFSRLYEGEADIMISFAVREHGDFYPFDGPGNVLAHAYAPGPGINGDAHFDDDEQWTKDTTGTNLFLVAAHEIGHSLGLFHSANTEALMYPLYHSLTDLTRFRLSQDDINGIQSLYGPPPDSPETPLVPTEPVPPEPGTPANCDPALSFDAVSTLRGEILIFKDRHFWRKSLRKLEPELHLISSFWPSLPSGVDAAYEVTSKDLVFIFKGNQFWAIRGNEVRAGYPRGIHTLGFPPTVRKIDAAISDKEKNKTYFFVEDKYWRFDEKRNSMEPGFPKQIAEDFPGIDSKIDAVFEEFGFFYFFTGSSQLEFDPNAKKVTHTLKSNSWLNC

[2] = target: T1, 72 kDa type IV collagenase; assay: Inhibition of human recombinant MMP2 using MOCAc-Lys-Pro-Leu-Gly-Leu-A2pr(Dnp)-Ala-Arg-N2 as substrate preincubated for 5 mins followed by substrate addition and measured after 120 mins by fluorescence based assay
Target sequence in this assay (P08253 whole entry): as the sequence (P08253 whole entry) above

[3] = Metabolic stability in human serum assessed as parent compound remaining measured for 4 hrs; assay type: ADME, cell-free; conditions: read-out: Stability
[4] = Chemical stability of the compound in phosphate buffer at pH 7.4 assessed as residual rate incubated for 2 weeks by HPLC analysis; assay type: physicochemical; conditions: read-out: Stability
Homo sapiens [5] = organism: Homo sapiens; assay: Selectivity ratio of Ki for recombinant human MMP8 to Ki for recombinant human MMP2
[6] = target: T1, 72 kDa type IV collagenase; assay: Inhibition of recombinant human MMP2 using MOCAc-Lys-Pro-Leu-Gly-Leu-A2pr(Dnp)-Ala-Arg-N2 as substrate preincubated for 10 to 15 mins followed by substrate addition and measured after 60 to 120 mins by fluorescence based assay
Target sequence in this assay (P08253 whole entry): as above

[7] = target: MMP-2/MMP-14 (Homo sapiens) (UniProt P50281+P08253); assay: Selectivity ratio of Ki for recombinant human MMP14 to Ki for recombinant human MMP2; assay type: protein assay
Interstitial collagenase = target: T3, Interstitial collagenase (Homo sapiens, UniProt P03956); assay: Inhibition of human recombinant MMP1 using MOCAc-Lys-Pro-Leu-Gly-Leu-A2pr(Dnp)-Ala-Arg-N2 as substrate preincubated for 15 mins followed by substrate addition and measured after 120 mins by fluorescence based assay
T3 sequence (P03956 whole entry): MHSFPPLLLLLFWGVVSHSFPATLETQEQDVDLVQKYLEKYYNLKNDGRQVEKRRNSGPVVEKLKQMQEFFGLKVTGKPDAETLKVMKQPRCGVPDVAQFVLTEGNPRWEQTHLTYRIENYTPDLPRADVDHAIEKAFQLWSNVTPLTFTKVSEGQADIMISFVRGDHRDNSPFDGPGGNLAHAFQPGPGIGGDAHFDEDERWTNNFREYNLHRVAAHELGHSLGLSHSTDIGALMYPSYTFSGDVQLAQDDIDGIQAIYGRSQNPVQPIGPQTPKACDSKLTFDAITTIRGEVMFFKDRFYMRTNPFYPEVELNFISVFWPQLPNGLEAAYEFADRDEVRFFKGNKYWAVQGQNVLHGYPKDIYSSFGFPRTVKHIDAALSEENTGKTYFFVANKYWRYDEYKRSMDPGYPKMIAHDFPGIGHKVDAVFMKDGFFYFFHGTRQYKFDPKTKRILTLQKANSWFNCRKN

[8] = Chemical stability of the compound in phosphate buffer at pH 4 assessed as residual rate incubated for 2 weeks by HPLC analysis; assay type: physicochemical; conditions: read-out: Stability
Homo sapiens [9] = organism: Homo sapiens; assay: Selectivity ratio of IC50 for recombinant human MMP12 to IC50 for recombinant human MMP2
Neutrophil collagenase = Neutrophil collagenase (Homo sapiens, UniProt P22894); assay: Inhibition of human recombinant MMP8 using MOCAc-Lys-Pro-Leu-Gly-Leu-A2pr(Dnp)-Ala-Arg-N2 as substrate preincubated for 15 mins followed by substrate addition and measured after 120 mins by fluorescence based assay
Neutrophil collagenase, sequence (P22894 whole entry): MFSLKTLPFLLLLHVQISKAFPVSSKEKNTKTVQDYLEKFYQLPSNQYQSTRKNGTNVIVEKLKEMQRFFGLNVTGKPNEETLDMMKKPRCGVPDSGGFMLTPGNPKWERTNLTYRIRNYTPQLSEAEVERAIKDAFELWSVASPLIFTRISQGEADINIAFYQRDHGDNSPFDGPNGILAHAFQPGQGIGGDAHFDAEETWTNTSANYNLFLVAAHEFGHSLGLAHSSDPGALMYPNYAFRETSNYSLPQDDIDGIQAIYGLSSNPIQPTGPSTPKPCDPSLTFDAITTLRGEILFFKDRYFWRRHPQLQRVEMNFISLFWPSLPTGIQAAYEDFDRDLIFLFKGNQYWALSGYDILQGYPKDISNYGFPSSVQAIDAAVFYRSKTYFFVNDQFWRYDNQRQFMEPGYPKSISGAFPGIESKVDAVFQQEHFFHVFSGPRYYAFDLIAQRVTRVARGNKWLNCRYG

Homo sapiens [10] = organism: Homo sapiens; assay: Selectivity ratio of Ki for recombinant human MMP12 to Ki for recombinant human MMP2
[11] = target: Matrix metalloproteinase-14 (Homo sapiens, UniProt P50281); assay: Inhibition of human recombinant MMP14 using MOCAc-Lys-Pro-Leu-Gly-Leu-A2pr(Dnp)-Ala-Arg-N2 as substrate preincubated for 15 mins followed by substrate addition and measured after 120 mins by fluorescence based assay
[12] = target: MMP-1/MMP-2 (Homo sapiens) (UniProt P08253+P03956); assay: Selectivity ratio of Ki for recombinant human MMP1 to Ki for recombinant human MMP2; assay type: protein assay
MMP-1/MMP-2 (Homo sapiens), sequence (P08253 whole entry, looked up, one chain of several): as the sequence (P08253 whole entry) above

[13] = target: T4, MMP-2/MMP-13 (Homo sapiens) (UniProt P08253+P45452); assay: Selectivity ratio of IC50 for recombinant human MMP13 to IC50 for recombinant human MMP2; assay type: protein assay
T4 sequence (P08253 whole entry, looked up, other chains not shown): as the sequence (P08253 whole entry) above

[14] = target: MMP-2/MMP-9 (Homo sapiens) (UniProt P08253+P14780); assay: Selectivity ratio of Ki for recombinant human MMP9 to Ki for recombinant human MMP2; assay type: protein assay
[15] = Chemical stability of the compound in phosphate buffer at pH 9 assessed as residual rate incubated for 2 weeks by HPLC analysis; assay type: physicochemical; conditions: read-out: Stability
Homo sapiens [16] = organism: Homo sapiens; assay: Selectivity ratio of Ki for recombinant human MMP3 to Ki for recombinant human MMP2
[17] = target: Matrix metalloproteinase-9 (Homo sapiens, UniProt P14780); assay: Inhibition of human recombinant MMP9 using MOCAc-Lys-Pro-Leu-Gly-Leu-A2pr(Dnp)-Ala-Arg-N2 as substrate preincubated for 15 mins followed by substrate addition and measured after 120 mins by fluorescence based assay
Matrix metalloproteinase-9, sequence (P14780 whole entry): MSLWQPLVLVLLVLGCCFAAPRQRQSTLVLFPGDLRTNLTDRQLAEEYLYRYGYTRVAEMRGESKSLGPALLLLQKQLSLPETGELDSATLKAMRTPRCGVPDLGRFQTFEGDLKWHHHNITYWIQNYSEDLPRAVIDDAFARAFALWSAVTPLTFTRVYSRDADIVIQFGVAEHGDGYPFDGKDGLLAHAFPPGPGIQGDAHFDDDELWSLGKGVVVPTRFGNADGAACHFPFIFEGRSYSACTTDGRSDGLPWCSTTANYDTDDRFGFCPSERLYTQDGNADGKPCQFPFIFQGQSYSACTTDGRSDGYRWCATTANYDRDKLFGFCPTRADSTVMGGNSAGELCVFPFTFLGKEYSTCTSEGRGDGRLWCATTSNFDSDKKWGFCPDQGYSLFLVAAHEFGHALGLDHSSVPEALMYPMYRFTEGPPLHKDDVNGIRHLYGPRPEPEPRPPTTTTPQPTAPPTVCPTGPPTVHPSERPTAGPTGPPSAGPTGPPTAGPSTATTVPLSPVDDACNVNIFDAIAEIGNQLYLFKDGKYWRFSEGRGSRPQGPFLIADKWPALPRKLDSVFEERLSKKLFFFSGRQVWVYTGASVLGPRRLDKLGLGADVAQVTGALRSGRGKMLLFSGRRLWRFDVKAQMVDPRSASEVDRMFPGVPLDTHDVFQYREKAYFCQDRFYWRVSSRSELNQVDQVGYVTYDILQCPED

Collagenase 3 = Collagenase 3 (Homo sapiens, UniProt P45452); assay: Inhibition of human recombinant MMP13 using MOCAc-Lys-Pro-Leu-Gly-Leu-A2pr(Dnp)-Ala-Arg-N2 as substrate preincubated for 15 mins followed by substrate addition and measured after 120 mins by fluorescence based assay
[18] = target: T4, MMP-2/MMP-13 (Homo sapiens); assay: Selectivity ratio of Ki for recombinant human MMP13 to Ki for recombinant human MMP2; assay type: protein assay
[19] = target: T5, Macrophage metalloelastase (Homo sapiens, UniProt P39900); assay: Inhibition of human recombinant MMP12 using MOCAc-Lys-Pro-Leu-Gly-Leu-A2pr(Dnp)-Ala-Arg-N2 as substrate preincubated for 15 mins followed by substrate addition and measured after 120 mins by fluorescence based assay
T5 sequence (P39900 whole entry): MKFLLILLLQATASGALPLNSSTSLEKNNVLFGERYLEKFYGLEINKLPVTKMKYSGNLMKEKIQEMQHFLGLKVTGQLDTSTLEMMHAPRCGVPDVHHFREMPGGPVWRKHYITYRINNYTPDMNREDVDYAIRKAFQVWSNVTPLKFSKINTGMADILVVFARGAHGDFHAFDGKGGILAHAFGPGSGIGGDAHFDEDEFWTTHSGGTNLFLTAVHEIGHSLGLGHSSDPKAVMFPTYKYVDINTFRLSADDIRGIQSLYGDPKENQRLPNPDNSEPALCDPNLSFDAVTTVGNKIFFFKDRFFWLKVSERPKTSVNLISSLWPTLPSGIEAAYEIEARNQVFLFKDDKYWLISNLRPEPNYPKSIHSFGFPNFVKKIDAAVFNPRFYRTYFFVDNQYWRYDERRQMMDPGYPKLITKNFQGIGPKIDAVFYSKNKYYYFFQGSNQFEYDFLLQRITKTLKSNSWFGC

[20] = target: T5, Macrophage metalloelastase; assay: Inhibition of human recombinant MMP12 using MOCAc-Lys-Pro-Leu-Gly-Leu-A2pr(Dnp)-Ala-Arg-N2 as substrate preincubated for 10 to 15 mins followed by substrate addition and measured after 60 to 120 mins by fluorescence based assay; conditions: read-out: IC50
[21] = target: T1, 72 kDa type IV collagenase; assay: Binding affinity to human MMP2 assessed as dissociative half-life
Target sequence in this assay (P08253 110-660 limits assumed): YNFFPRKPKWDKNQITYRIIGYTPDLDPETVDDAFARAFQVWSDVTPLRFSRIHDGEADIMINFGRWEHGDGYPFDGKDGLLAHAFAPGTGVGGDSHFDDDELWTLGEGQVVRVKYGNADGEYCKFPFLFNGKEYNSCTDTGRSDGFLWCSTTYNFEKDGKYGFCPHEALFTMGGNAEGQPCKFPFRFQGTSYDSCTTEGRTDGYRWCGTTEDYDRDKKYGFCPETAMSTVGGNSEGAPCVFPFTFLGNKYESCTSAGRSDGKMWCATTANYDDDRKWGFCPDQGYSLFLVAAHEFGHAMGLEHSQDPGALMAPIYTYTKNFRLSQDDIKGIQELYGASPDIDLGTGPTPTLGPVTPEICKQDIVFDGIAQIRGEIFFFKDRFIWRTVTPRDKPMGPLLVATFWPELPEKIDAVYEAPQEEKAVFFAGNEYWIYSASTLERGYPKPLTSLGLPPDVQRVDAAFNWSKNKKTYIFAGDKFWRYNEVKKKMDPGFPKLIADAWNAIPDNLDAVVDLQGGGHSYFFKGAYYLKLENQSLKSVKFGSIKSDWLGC

`CC(C)C[C@H](NC(=O)[C@@H]1C[C@H](N)CN1C(=O)CC[C@@H](NS(=O)(=O)c1ccc(NC(=O)c2ccc(C(N)=O)cc2)cc1)C(=O)O)C(=O)N(C)[C@@H](CCC(=O)O)C(=O)NCCCCC(N)=O` showed an IC50 [1] of 0.22 nM, a Ki (Matrilysin) of 150 µM and a Ki (Stromelysin-1) of 4.9 µM. It also gave an IC50 [2] of 0.034 nM, a remaining at 4 h [3] of 93.1% and a remaining at 336 h [4] of 99%. The Ratio Ki (Homo sapiens [5]) was 53000, the Ki [6] was 0.034 nM and the Ratio Ki [7] was 2000. It also gave an IC50 (Interstitial collagenase) of 270 µM, a remaining at 336 h [8] of 98.7% and a Ratio IC50 (Homo sapiens [9]) of 1100. The IC50 (Neutrophil collagenase) was 1800 nM, the Ratio Ki (Homo sapiens [10]) was 5000 and the Ki [11] was 68 nM. The Ratio Ki [12] was 7.9e+06, the Ratio IC50 [13] was 1100 and the Ratio Ki [14] was 56000. It also gave a remaining at 336 h [15] of 98.1%, a Ratio Ki (Homo sapiens [16]) of 140000 and a Ki [17] of 1900 nM. It also gave a Ki (Collagenase 3) of 110 nM, a Ratio Ki [18] of 3200 and a Ki [19] of 170 nM. It also gave an IC50 [20] of 250 nM and a T1/2 [21] of 4.42 h.
